Results: US12023387B2, “NIR-II emissive luminogens” (THE HONG KONG UNIVERSTIY OF SCIENCE AND TECHNOLOGY, priority 2018, dated 2024)

Tests used:
[1] = UV-vis absorption spectrum in THF solution; format: physicochemical; conditions: THE (THF) solution, 10 μM
nude mouse = test: In vivo dynamic NIR-II fluorescence imaging after intravenous injection; conditions: i.v. injection of TSPCI solution in water, images 1-5 s after injection, 808 nm excitation, 1000 nm long-pass filter
Description: NIR-I fluorescence imaging was performed using the Maestro in vivo imaging system (CRI, Inc.). To acquire fluorescence of an NIR-I AIEgen (TTD), a 605 nm (+25 nm) bandpass filter and a 645 nm longpass filter were selected as the excitation filter and the emission filter, respectively. NIR-II imaging was performed using the home-built NIR-II in vivo imaging system. The excitation light was provided by an 808 nm diode laser. The emitted light from the TSPCI was filtered through a 1000 nm long-pass filter, which was coupled with a two-dimensional InGaAs array camera (with spectral response range of 900-1700 nm, Photonic Science) for NIR-II fluorescence signal collection. The excitation power density at the imaging plane was 6.4 mW/cm^2, much lower than the safe exposure limit of 330 mW/cm^2 at 808 nm determined by the International Commission on Nonionizing Radiation Protection. […]
TSPCI was added to water under sonication to provide a TSPCI solution. […] FIG. 7A depicts an NIR-II fluorescence image of the nude mouse before intravenous injection of TSPCI solution. FIG. 7B depicts an NIR-II fluorescence image of the nude mouse one second after injection of TSPCI solution. FIG. 7C depicts an NIR-II fluorescence image of the nude mouse two seconds after injection of TSPCI solution. FIG. 7D depicts an NIR-II fluorescence image of the nude mouse three seconds after injection of TSPCI solution. […]

[2] = AIE property: photoluminescence in THF/water mixtures with varying water fraction; format: physicochemical
Description: FIG. 4 depicts (A) an image of TSPCI powder in daylight; (B) the UV-vis absorption spectrum of TSPCI; (C) the photoluminescence (PL) spectra of TSPCI in THF and THF/water mixtures with different water fractions (fw); and (D) the plot of relative PL intensities at 950 nm versus the fw (concentration: 10 μM; excitation wavelength: 808 nm).
The AIE property of TSPCI was investigated by varying the water fractions (fw) in tetrahydrofuran (THF)/water mixtures (FIG. 4C). […] The strongest emission intensity at ˜950 nm reached its maximum value at 90 vol % water content, which was ˜35-fold higher than that in the pure THF due to the restriction of intramolecular rotation ([…]).

SMILES: N#CC(C#N)=C1C(=C2C=C(/C=C/c3ccc(N(c4ccccc4)c4ccccc4)cc3)OC(/C=C/c3ccc(N(c4ccccc4)c4ccccc4)cc3)=C2)C(=C(C#N)C#N)c2ccccc21 [TSPCI]
- maximal absorption wavelength [1]: 682 nm
- in vivo NIR-II imaging performance (nude mouse): high contrast and penetration depth
- wavelength of strongest emission intensity ([2]; THF/water mixtures, excitation 808 nm): ~950 nm
- emission spectrum range in aggregate state ([2]; aggregate state, bright emission, NIR-II): 1000-1700 nm
- emission intensity enhancement versus pure THF ([2]; at ~950 nm, 90 vol % water content in THF/water, 10 μM, excitation 808 nm): ~35 fold
- emission in pure THF solution ([2]; pure THF (fw=0)): no emission was observed
